One experiment deals with T1, human TLR7 (Homo sapiens, UniProt Q9NYK1).
T1 construct: host or cells: HEK-Blue TLR7 cells (engineered human embryonic kidney cells)
T1 sequence (Q9NYK1 27-1049): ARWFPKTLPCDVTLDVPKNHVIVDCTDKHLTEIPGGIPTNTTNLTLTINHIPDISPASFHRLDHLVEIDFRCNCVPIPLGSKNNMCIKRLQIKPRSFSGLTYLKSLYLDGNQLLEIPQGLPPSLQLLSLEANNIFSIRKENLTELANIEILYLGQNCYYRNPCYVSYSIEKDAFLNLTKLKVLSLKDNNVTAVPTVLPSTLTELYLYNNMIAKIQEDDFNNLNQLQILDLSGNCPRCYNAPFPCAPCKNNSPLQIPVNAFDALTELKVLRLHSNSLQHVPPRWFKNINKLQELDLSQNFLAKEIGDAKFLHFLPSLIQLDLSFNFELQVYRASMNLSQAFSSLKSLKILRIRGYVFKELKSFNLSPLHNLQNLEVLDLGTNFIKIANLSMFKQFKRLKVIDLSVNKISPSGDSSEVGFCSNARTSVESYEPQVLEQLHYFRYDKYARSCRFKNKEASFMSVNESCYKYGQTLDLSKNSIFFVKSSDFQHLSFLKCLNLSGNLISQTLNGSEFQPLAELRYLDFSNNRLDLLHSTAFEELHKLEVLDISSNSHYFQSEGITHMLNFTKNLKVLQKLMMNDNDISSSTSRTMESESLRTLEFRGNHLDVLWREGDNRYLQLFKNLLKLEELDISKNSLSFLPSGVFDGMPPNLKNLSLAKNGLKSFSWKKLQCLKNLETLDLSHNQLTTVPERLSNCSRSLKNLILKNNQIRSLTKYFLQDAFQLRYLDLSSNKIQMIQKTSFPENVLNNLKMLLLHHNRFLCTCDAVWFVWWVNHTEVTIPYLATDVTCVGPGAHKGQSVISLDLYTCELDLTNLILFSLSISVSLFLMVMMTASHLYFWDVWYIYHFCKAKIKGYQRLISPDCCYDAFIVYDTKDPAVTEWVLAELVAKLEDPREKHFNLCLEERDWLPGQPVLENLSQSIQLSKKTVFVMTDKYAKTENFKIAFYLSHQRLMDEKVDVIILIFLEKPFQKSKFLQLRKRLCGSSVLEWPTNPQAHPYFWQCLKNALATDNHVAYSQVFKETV
In words: Human TLR7 agonist activity reporter assay (HEK-Blue TLR7 cells, SEAP reporter). The class given is cell-based. Conditions: 18 h treatment, average where assay was performed multiple times, read-out: hTLR7 Agonism EC50. On the procedure: This procedure describes a method for assaying human TLR7 (hTLR7) agonist activity of the compounds disclosed in this specification.
HEK-Blue™ TLR7 cells were added to each well of a 384-well tissue-culture plate (15,000 cells per well) and incubated 16-18 h at 37° C., 5% CO2. Compounds (100 nl) were dispensed into wells containing the HEK-Blue™ TLR cells and the treated cells were incubated at 37° C., 5% CO2. After 18 h treatment ten microliters of freshly-prepared Quanti-Blue™ reagent (Invivogen) was added to each well, incubated for 30 min (37° C., 5% CO2) and SEAP levels measured using an Envision plate reader (OD=620 nm). The half maximal effective concentration values (EC50; compound concentration which induced a response halfway between the assay baseline and maximum) were calculated.
(Reporter assays use an easily measured gene product as a stand-in for the process of interest.)

For a further experiment, the system named is CD69. In words: Induction of CD69 in human whole blood. In kind it is cell-based. The following applies: 17 hrs at 37° C., y-axis 100% set to 1 uM of resiquimod, average where assay was performed multiple times, read-out: hWB CD69 EC50. On the procedure: The induction of Type I interferon (IFN) MX-1 genes and the B-cell activation marker CD69 are downstream events that occur upon activation of the TLR7 pathway. The following is a human whole blood assay that measures their induction in response to a TLR7 agonist.
Heparinized human whole blood was harvested from human subjects and treated with test TLR7 agonist compounds at 1 mM. The blood was diluted with RPMI 1640 media and Echo was used to predot 10 nL per well giving a final concentration of 1 uM (10 nL in 10 uL of blood). After mixing on a shaker for 30 sec, the plates were covered and placed in a 37° C. chamber for o/n=17 hrs. Fixing/lysis buffer was prepared (5×->1× in H2O, warm at 37° C.; Cat #BD 558049) and kept the perm buffer (on ice) for later use.
For surface markers staining (CD69): prepared surface Abs: 0.045 ul hCD14-FITC (ThermoFisher Cat #MHCD1401)+0.6 ul hCD19-ef450 (ThermoFisher Cat #48-0198-42)+1.5 ul hCD69-PE (cat #BD555531)+0.855 ul FACS buffer. Added 3 ul/well, spin 1000 rpm for 1 min and mixed on shaker for 30 sec, put on ice for 30 mins. Stop stimulation after 30 minutes with 70 uL of prewarmed 1× fix/lysis buffer and use Feliex mate to resuspend (15 times, change tips for each plate) and incubate at 37 C for 10 minutes.
Centrifuge at 2000 rpm for 5 minutes aspirate with HCS plate washer, mix on shaker for 30 sec and then wash with 70 uL in dPBS and pelleted 2×s (2000 rpm for 5 min) and 50 ul wash in FACS buffer pelleted 1×s (2000 rpm for 5 min). Mix on shaker for 30 sec. For Intracellular markers staining (MX-1): Add 50 ul of BD Perm buffer III and mix on shaker for 30 sec. Incubate on ice for 30 minutes (in the dark). Wash with 50 uL of FACS buffer 2× (spin @2300 rpm×5 min after perm) followed by mixing on shaker for 30 sec. Resuspended in 20 ul of FACS buffer containing MX1 antibody ( )(4812)-Alexa 647: Novus Biologicals #NBP2-43704AF647) 20 ul FACS bf+0.8 ul hIgG+0.04 ul MX-1. Spin 1000 rpm for 1 min, mix on shaker for 30 se and the samples were incubated at RT in the dark for 45 minutes followed by washing 2×FACS buffer (spin @2300 rpm×5 min after perm). Resuspend 20 ul (35 uL total per well) of FACS buffer and cover with foil and place in 4° C. to read the following day. Plates were read on iQuePlus. The results were loaded into toolset and […] curves are generated in curve master. The y-axis 100% is set to 1 uM of resiquimod.

Each structure is given as a SMILES string.

As a reminder, the EC50 is the concentration that produces a half-maximal response. In the case of `CCCCNc1nc(N)nc2c(Br)nn(Cc3ccc(CNC4CCOCC4)cc3OC)c12` [Compound 101, 3-bromo-N7-butyl-1-[(2-methoxy-4-{[(oxan-4-yl)amino]methyl}phenyl)-methyl]-1H-pyrazolo[4,3-d]pyrimidine-5,7-diamine], the EC50 on human TLR7 came out at 2000 nM; in the experiment on CD69, 365 nM.

For `CCCCNc1nc(N)nc2c(C3CC3)nn(Cc3ccc(CNC4CCOCC4)cc3OC)c12` [Compound 102, N7-butyl-3-cyclopropyl-1-[(2-methoxy-4-{[(oxan-4-yl)amino]methyl}phenyl)-methyl]-1H-pyrazolo[4,3-d]pyrimidine-5,7-diamine], the EC50 on human TLR7 was found to be 210 nM; in the experiment with CD69, 34.5 nM.

With `CCCCNc1nc(N)nc2c(C)nn(Cc3ccc(CNC4CCC4)cc3OC)c12` [Compound 103, N7-butyl-1-({4-[(cyclobutylamino)methyl]-2-methoxyphenyl}methyl)-3-methyl-1H-pyrazolo[4,3-d]pyrimidine-5,7-diamine], the 50% effective concentration (EC50) on human TLR7 turned out to be 101 nM; in the experiment with CD69 it was 15.4 nM.

`CCCCNc1nc(N)nc2c(C)nn(Cc3ccc(CNC4CCOCC4)cc3OC)c12` [Compound 104, N7-butyl-1-[(2-methoxy-4-{[(oxan-4-yl)amino]methyl}-phenyl)methyl]-3-methyl-1H-pyrazolo[4,3-d]pyrimidine-5,7-diamine]: the EC50 at human TLR7 was found to be 91.3 nM; in the experiment on CD69 it was 41.8 nM.

Take `CCCCNc1nc(N)nc2c(C)nn(Cc3ccc(CN4CCN(C)CC4)cc3OC)c12` [Compound 105, N7-butyl-1-({2-methoxy-4-[(4-methylpiperazin-1-yl)methyl]phenyl}methyl)-3-methyl-1H-pyrazolo[4,3-d]pyrimidine-5,7-diamine]: the EC50 stood at 62.3 nM at human TLR7 and 9.4 nM in the experiment on CD69.

On to `CCCCNc1nc(N)nc2c(C)nn(Cc3ccc(CN4CCN(CCO)CC4)cc3OC)c12` [Compound 106, 2-{4-[(4-{[5-amino-7-(butylamino)-3-methyl-1H-pyrazolo[4,3-d]pyrimidin-1-yl]methyl}-3-methoxy-phenyl)methyl]piperazin-1-yl}ethan-1-ol], for which the figures for the EC50 on human TLR7 and in the experiment with CD69 were 63.3 nM and 20.6 nM, respectively.

`CCCCNc1nc(N)nc2c(F)nn(Cc3ccc(CNC4CCC4)cc3OC)c12` [Compound 107, N7-butyl-1-({4-[(cyclobutylamino)methyl]-2-methoxyphenyl}methyl)-3-fluoro-1H-pyrazolo[4,3-d]pyrimidine-5,7-diamine]: the EC50 is 46.5 nM on human TLR7 and 28.4 nM with CD69.

On to `CCCCNc1nc(N)nc2c(F)nn(Cc3ccc(CNC4CCOCC4)cc3OC)c12` [Compound 108, N7-butyl-3-fluoro-1-[(2-methoxy-4-{[(oxan-4-yl)amino]methyl}phenyl)-methyl]-1H-pyrazolo[4,3-d]pyrimidine-5,7-diamine], for which the EC50 was 72 nM at human TLR7 and 87.2 nM in the experiment with CD69.

In the case of `CCCCNc1nc(N)nc2c(F)nn(Cc3ccc(CN4CCN(C)CC4)cc3OC)c12` [Compound 109, N7-butyl-3-fluoro-1-({2-methoxy-4-[(4-methyl-piperazin-1-yl)methyl]-phenyl}methyl)-1H-pyrazolo[4,3-d]pyrimidine-5,7-diamine], the EC50 is 12.1 nM at human TLR7 and 8.4 nM in the experiment on CD69.

For `CCCCNc1nc(N)nc2c(F)nn(Cc3ccc(CN4CCN(CCO)CC4)cc3OC)c12` [Compound 110, 2-{4-[(4-{[5-amino-7-(butylamino)-3-fluoro-1H-pyrazolo[4,3-d]pyrimidin-1-yl]methyl}-3-methoxyphenyl)methyl]-piperazin-1-yl}ethan-1-ol], the 50% effective concentration (EC50) amounted to 22.9 nM at human TLR7 and 44.9 nM with CD69.

`CCCCNc1nc(N)nc2c(Cl)nn(Cc3ccc(CNC4CCOCC4)cc3OC)c12` [Compound 111, N7-butyl-3-chloro-1-[(2-methoxy-4-{[(oxan-4-yl)amino]methyl}phenyl)-methyl]-1H-pyrazolo[4,3-d]pyrimidine-5,7-diamine]: the EC50 at human TLR7 was 1410 nM; in the experiment with CD69 it was 97 nM.

Take `CCCCNc1nc(N)nc2c(-c3ccncc3)nn(Cc3ccc(CNC4CCOCC4)cc3OC)c12` [Compound 112, N7-butyl-1-[(2-methoxy-4-{[(oxan-4-yl)amino]-methyl}phenyl)methyl]-3-(pyridin-4-yl)-1H-pyrazolo[4,3-d]pyrimidine-5,7-diamine]: the EC50 was determined as 2430 nM at human TLR7 and 1000 nM in the experiment with CD69.

On to `CCCCNc1nc(N)nc2c(-c3ccccc3)nn(Cc3ccc(CNC4CCOCC4)cc3OC)c12` [Compound 113, N7-butyl-1-[(2-methoxy-4-{[(oxan-4-yl)amino]methyl}-phenyl)methyl]-3-phenyl-1H-pyrazolo[4,3-d]pyrimidine-5,7-diamine], for which, in the experiment on CD69, the EC50 stood at 1000 nM.

Take `CCCCNc1nc(N)nc2c(C(F)(F)F)nn(Cc3ccc(CNC4CCOCC4)cc3OC)c12` [Compound 117, N7-butyl-1-[(2-methoxy-4-{[(oxan-4-yl)amino]methyl}-phenyl)methyl]-3-(trifluoro-methyl)-1H-pyrazolo[4,3-d]pyrimidine-5,7-diamine]: the EC50 with CD69 stood at 1000 nM.

Take `CCC[C@@H](CCO)Nc1nc(N)nc2c(C)nn(Cc3ncc(CN4CCN(CCO)CC4)cc3OC)c12` [Compound 135, (3S)-3-({5-amino-1-[(5-{[4-(2-hydroxyethyl)piperazin-1-yl]methyl}-3-methoxypyridin-2-yl)methyl]-3-methyl-1H-pyrazolo[4,3-d]pyrimidin-7-yl}amino)hexan-1-ol]: the EC50 on human TLR7 is 1110 nM.

On to `CCCCNc1nc(N)nc2c(C)nn(Cc3ccc(CN4CCN(CCOC)CC4)cc3OC)c12` [Compound 136, N7-butyl-1-[(2-methoxy-4-{[4-(2-methoxyethyl)piperazin-1-yl]methyl}phenyl)methyl]-3-methyl-1H-pyrazolo[4,3-d]pyrimidine-5,7-diamine], for which, at human TLR7, the concentration giving a half-maximal response (EC50) is 163 nM.

With `CCCCNc1nc(N)nc2c(C)nn(Cc3ccc(CN4CCN(CC(C)(C)O)CC4)cc3OC)c12` [Compound 137, 1-{4-[(4-{[5-amino-7-(butylamino)-3-methyl-1H-pyrazolo[4,3-d]pyrimidin-1-yl]methyl}-3-methoxyphenyl)methyl]piperazin-1-yl}-2-methylpropan-2-ol], the EC50 at human TLR7 amounted to 65.8 nM.

The values above are taken from patent US20230127326A1, “C3-SUBSTITUTED 1H-PYRAZOLO[4,3-d]PYRIMIDINE COMPOUNDS AS TOLL-LIKE RECEPTOR 7 (TLR7) AGONISTS” (BRISTOL-MYERS SQUIBB COMPANY, priority 2020, published 2023).
